Key:
[1] = target: T1, iNOS (Mus musculus, UniProt P29477); conditions: cited from earlier work
T1 sequence (P29477 1-1144): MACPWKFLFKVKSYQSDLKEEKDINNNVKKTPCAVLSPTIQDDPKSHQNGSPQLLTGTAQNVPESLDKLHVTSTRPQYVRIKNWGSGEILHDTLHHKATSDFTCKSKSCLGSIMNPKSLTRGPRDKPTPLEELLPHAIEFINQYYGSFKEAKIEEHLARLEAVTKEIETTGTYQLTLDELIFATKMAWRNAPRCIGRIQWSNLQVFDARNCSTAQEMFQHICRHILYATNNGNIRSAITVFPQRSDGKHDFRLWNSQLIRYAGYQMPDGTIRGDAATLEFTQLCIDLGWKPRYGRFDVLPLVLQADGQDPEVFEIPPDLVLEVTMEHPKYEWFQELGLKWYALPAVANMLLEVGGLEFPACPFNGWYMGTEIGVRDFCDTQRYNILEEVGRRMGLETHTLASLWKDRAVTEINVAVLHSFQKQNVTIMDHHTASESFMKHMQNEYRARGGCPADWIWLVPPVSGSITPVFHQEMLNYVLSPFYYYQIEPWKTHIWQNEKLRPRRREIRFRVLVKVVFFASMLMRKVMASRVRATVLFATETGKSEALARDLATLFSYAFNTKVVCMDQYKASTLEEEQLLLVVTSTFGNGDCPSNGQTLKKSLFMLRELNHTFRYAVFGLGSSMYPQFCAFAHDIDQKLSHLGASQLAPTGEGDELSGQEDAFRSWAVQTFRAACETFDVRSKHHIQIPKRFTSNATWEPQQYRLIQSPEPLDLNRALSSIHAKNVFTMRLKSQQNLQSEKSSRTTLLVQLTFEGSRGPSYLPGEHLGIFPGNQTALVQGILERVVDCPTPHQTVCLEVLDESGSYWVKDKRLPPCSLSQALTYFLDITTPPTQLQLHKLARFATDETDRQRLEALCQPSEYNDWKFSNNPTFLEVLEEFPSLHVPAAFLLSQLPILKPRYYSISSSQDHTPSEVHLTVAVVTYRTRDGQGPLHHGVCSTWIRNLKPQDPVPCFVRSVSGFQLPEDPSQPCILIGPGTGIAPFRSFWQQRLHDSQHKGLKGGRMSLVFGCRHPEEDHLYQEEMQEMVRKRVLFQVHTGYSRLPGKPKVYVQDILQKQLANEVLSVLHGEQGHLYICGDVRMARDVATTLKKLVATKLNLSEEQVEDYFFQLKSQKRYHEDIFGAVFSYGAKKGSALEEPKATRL

[2] = target: T2, ^14C-A-bound protein in RAW cells (Mus musculus, UniProt P29477); experiment: Dose dependency of ^14C-A binding activity in LPS/IFN-stimulated RAW264.7 cell extract; format: cell-based; conditions: RAW264.7 cells, LPS/IFN stimulation
T2 construct: endogenous in cells; host or cells: RAW264.7 mouse macrophage cells stimulated with LPS and IFN-γ
T2 sequence (P29477 1-1144): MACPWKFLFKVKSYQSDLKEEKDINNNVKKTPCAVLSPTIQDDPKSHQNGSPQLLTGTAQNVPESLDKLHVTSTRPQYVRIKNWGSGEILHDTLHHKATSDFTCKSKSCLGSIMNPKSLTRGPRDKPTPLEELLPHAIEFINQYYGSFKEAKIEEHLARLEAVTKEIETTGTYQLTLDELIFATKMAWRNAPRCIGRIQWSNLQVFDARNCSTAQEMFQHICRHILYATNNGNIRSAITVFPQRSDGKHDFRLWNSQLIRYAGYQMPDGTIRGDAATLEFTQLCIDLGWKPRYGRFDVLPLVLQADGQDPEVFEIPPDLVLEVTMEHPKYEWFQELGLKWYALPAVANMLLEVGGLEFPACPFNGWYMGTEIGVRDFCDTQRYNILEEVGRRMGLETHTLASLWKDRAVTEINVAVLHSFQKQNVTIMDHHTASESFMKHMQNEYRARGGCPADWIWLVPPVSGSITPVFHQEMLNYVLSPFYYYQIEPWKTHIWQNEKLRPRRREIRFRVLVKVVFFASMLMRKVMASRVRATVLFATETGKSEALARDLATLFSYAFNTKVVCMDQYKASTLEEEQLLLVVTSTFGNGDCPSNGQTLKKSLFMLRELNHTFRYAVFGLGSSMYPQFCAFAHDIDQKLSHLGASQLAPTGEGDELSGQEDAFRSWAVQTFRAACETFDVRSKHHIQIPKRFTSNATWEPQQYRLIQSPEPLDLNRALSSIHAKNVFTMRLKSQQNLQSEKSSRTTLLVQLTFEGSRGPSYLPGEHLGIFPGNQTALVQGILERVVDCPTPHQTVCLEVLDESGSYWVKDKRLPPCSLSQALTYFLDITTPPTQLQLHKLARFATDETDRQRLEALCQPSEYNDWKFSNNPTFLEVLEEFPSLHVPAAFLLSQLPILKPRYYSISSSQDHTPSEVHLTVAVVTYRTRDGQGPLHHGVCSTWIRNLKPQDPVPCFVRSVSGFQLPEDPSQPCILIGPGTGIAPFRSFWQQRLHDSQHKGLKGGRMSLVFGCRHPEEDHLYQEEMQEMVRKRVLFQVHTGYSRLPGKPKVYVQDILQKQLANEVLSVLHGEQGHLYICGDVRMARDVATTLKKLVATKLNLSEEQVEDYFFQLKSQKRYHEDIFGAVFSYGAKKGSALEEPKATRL
Method: (§1) Mouse macrophage derived RAW264.7 cells (Stuehr D. J. Proc. Natl. Acad. Sci. USA. 1991, 88, 7773; Cancer Res. 1987, 47, 5590) were cultured in Dulbecco's Modified Eagle Medium containing 10% FCS (fetal calf serum) , until there were 2 to 4×10^7 cells in each F75 culture flask (Falcon). Then, lipopolysaccharide (LPS) and interferon-γ (IFN) were added to a final concentration of 4 μg/ml and 16 units/ml, respectively, and cultured overnight in a CO2 incubator (37° C.). 0.1% Trypsin (5 mL) was added to the flask in which the cells were cultured, the cells were detached by an incubation at 37° C. for 5 minutes, and then collected by centrifugation. To the collected cells (2,000 rpm, 10 minutes), 600 μL of lysis buffer was added, and freeze thawing was repeated three times to disrupt the cells. The supernatant obtained by centrifugation (15,000 rpm, 15 minutes) was collected and this was the cell extract. […]
(§2) Then, 200 μL of that extract was applied to Superdex 200 HR10/30 (flow rate 0.5 mL/min: Amersham Pharmacia Biotech, Sweden) pre-equilibrated with 25 mM Tris-HCl (pH 8.0) containing 150 mM NaCl to perform gel filtration chromatography. Each of the fractions collected every minute were mixed with 7 mL of Aquasol-2 (Packard, USA), and was then measured with a liquid scintillation counter (FIG. 1). ^14C-A used in this experiment was synthesized as follows.

[3] = target: T1, iNOS; experiment: iNOS dimer/monomer detection by gel filtration and anti-iNOS dot blotting of LPS/IFN-stimulated RAW264.7 cell extract; format: cell-based; design: endogenous in cells; host or cells: RAW264.7 mouse macrophage cells stimulated with LPS and IFN-γ; conditions: RAW264.7 cells, LPS/IFN stimulation, compound A added
Method: as §1, with “centrifugation.” for “centrifugation. To the collected cells (2,000 rpm, 10 minutes), 600 μL of lysis buffer was added, and freeze thawing was repeated three times to disrupt the cells. The supernatant obtained by centrifugation (15,000 rpm, 15 minutes) was collected and this was the cell extract.”
as §2
Gel filtration fractions containing compound A binding activity, which were obtained by a method similar to that of Example 2 were analyzed by dot blotting. […]

[4] = target: T3, Δ122-iNOSox (Homo sapiens, UniProt P35228); experiment: Binding assay of ^3H-compound A with Δ122-iNOSox (gel filtration mini column, scintillation counting); conditions: Δ122-iNOSox protein
T3 construct: genes of the oxygenase domain region (amino acids 1 to 526) by PCR; His tag; made in house; host or cells: E. coli, protease-deficient DE3 strain; vector pTrcHis2 (Invitrogen)
Method: A binding assay system for ^3H-compound A (25Ci/mmol) was constructed using Δ122-iNOSox obtained in Example 9. In principle, it is an assay system in which the binding strength of a compound towards iNOS can be analyzed by measuring the amount of ^3H-compound A replaced by various test drugs added to bound Δ122-iNOSox protein and ^3H-compound A (10 nM) . That is, to 100 μL of a Δ122-iNOSox solution that has been diluted to a final concentration of 1 μg/mL with 25 mM Tris-HCl (pH 7.5) containing 150 mM NaCl and 1% CHAPS, 1 μL of 1 μM ^3H-compound A was added and was incubated for 3 hours at 4° C., then the entire amount was applied to a gel filtration mini column for desalting (NICK column; Pharmacia) that was pre-equilibrated with 25 mM Tris-HCl (pH 7.5) containing 150 mM NaCl. Next, 400 μL of the same buffer was added, the eluted solution was mixed with 7 mL of aquasol, and this was measured with a liquid scintillation counter.

[5] = target: the molecule itself; experiment: gel filtration (Superdex 200) of RAW264.7 cell extract with dot blot detection; homodimer peak

T3 sequence (P35228 123-526 limits assumed, stated change not applied): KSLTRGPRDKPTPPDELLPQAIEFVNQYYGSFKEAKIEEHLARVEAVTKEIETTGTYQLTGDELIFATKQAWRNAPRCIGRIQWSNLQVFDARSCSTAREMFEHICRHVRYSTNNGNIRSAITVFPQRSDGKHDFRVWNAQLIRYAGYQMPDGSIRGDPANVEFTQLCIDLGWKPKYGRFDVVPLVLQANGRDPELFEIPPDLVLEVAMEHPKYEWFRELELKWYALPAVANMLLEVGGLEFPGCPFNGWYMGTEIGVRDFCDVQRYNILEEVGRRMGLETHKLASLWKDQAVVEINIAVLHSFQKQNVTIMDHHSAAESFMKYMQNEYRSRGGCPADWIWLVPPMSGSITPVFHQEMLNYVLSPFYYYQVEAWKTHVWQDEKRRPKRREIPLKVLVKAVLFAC

## Clc1ccc(COC(Cn2ccnc2)c2ccc(Cl)cc2Cl)c(Cl)c1 (stereo not shown) [miconazole]
[1]
  effect on iNOS enzyme activity and dimerization: interfered not only with enzyme activity of iNOS but also with its dimerization

## Clc1ccccc1C(c1ccccc1)(c1ccccc1)n1ccnc1 [clotrimazole]
[1]
  effect on iNOS enzyme activity and dimerization: interfered not only with enzyme activity of iNOS but also with its dimerization

## CN(Cc1cccnc1)C(=O)[C@H](Cc1ccccc1)NC(=O)[C@H](Cc1ccccn1)NC(=O)c1cc2ccccc2o1 [compound A]
[2]
  radioactivity of cell extract versus added ^14C-A concentration (saturation): saturation of radioactivity was confirmed between 10^−6 M and 10^−5 M
[3]
  iNOS dimerization (dimer peak in dot blotting of gel filtration fractions): the peak corresponding to the dimer had clearly disappeared
[4]; Hill plot analysis
  Hill coefficient: 0.971
[4]; ^3H-compound A, saturation curve and Scatchard plot
  Kd: 13.5 nM

B1: iNOS derived from mice (inducible nitrogen oxide synthase from LPS/IFN-stimulated RAW264.7 cells) (enzyme, mouse, UniProt P29477 1-1144, looked up)
chain: MACPWKFLFKVKSYQSDLKEEKDINNNVKKTPCAVLSPTIQDDPKSHQNGSPQLLTGTAQNVPESLDKLHVTSTRPQYVRIKNWGSGEILHDTLHHKATSDFTCKSKSCLGSIMNPKSLTRGPRDKPTPLEELLPHAIEFINQYYGSFKEAKIEEHLARLEAVTKEIETTGTYQLTLDELIFATKMAWRNAPRCIGRIQWSNLQVFDARNCSTAQEMFQHICRHILYATNNGNIRSAITVFPQRSDGKHDFRLWNSQLIRYAGYQMPDGTIRGDAATLEFTQLCIDLGWKPRYGRFDVLPLVLQADGQDPEVFEIPPDLVLEVTMEHPKYEWFQELGLKWYALPAVANMLLEVGGLEFPACPFNGWYMGTEIGVRDFCDTQRYNILEEVGRRMGLETHTLASLWKDRAVTEINVAVLHSFQKQNVTIMDHHTASESFMKHMQNEYRARGGCPADWIWLVPPVSGSITPVFHQEMLNYVLSPFYYYQIEPWKTHIWQNEKLRPRRREIRFRVLVKVVFFASMLMRKVMASRVRATVLFATETGKSEALARDLATLFSYAFNTKVVCMDQYKASTLEEEQLLLVVTSTFGNGDCPSNGQTLKKSLFMLRELNHTFRYAVFGLGSSMYPQFCAFAHDIDQKLSHLGASQLAPTGEGDELSGQEDAFRSWAVQTFRAACETFDVRSKHHIQIPKRFTSNATWEPQQYRLIQSPEPLDLNRALSSIHAKNVFTMRLKSQQNLQSEKSSRTTLLVQLTFEGSRGPSYLPGEHLGIFPGNQTALVQGILERVVDCPTPHQTVCLEVLDESGSYWVKDKRLPPCSLSQALTYFLDITTPPTQLQLHKLARFATDETDRQRLEALCQPSEYNDWKFSNNPTFLEVLEEFPSLHVPAAFLLSQLPILKPRYYSISSSQDHTPSEVHLTVAVVTYRTRDGQGPLHHGVCSTWIRNLKPQDPVPCFVRSVSGFQLPEDPSQPCILIGPGTGIAPFRSFWQQRLHDSQHKGLKGGRMSLVFGCRHPEEDHLYQEEMQEMVRKRVLFQVHTGYSRLPGKPKVYVQDILQKQLANEVLSVLHGEQGHLYICGDVRMARDVATTLKKLVATKLNLSEEQVEDYFFQLKSQKRYHEDIFGAVFSYGAKKGSALEEPKATRL
notes: Endogenous protein in cell extract and gel filtration fractions; It ran as monomer and dimer peaks without compound A and as monomer only with compound A; also called iNOS protein
[5]
  binding result: binds

Reference: US20040053323A1, “Method of screening inducible nitric oxide synthase activation inhibitor” (priority 2000, published 2004)
